This is an account of results in ChEMBL document CHEMBL1201862, “PubChem BioAssay data set” (2004).

Test systems include BT-549; HOP-62; CAKI-1; RPMI-8226; T47D; TK-10; SK-MEL-28; NCI-H226; OVCAR-4; HCT-15; RXF 393; SNB-19; ACHN; MDA-MB-231; NCI-H522; KM12; HL-60; SK-MEL-5; UACC-62; OVCAR-3.
Common to all, as to test: DTP human tumour cell line panel, 48 h

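Briefly, cells in 96-well plates were exposed to five compound concentrations for 48 h, and endpoints were estimated by linear interpolation. GI50 = concentration required for 50% inhibition of growth.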 The source made the active and inactive calls. Rule as the data show it: active = GI50 up to about 1.1 µM and inactive = higher.

For the molecule `CC#Cc1cc2c(cc1O)CC[C@@H]1[C@@H]2CC[C@]2(C)[C@@H](O)CC[C@@H]12`, the GI50 in the test on BT-549 was 11.9 µM (inactive); with HOP-62, 1.29 µM (inactive); in the test with CAKI-1, 0.766 µM (active); in the test on RPMI-8226, 1.61 µM (inactive); in the test on T47D, 3.15 µM (inactive); in the test with TK-10 it was 19.9 µM (inactive). Moreover, the GI50 is 7.36 µM (inactive) in the test on SK-MEL-28; 2.8 µM (inactive) in the test on NCI-H226; 12.8 µM (inactive) in the test with OVCAR-4; 0.34 µM with HCT-15; 2.45 µM (inactive) in the test on RXF 393; 2.4 µM (inactive) in the test on SNB-19. The GI50 was 6.17 µM (inactive) with ACHN; 8.18 µM (inactive) in the test on MDA-MB-231; 0.289 µM (active) in the test with NCI-H522; 3.08 µM (inactive) in the test on KM12; 0.311 µM (active) in the test on HL-60; 0.484 µM (active) in the test with SK-MEL-5.
With `Cc1c(-c2ccccc2)c(C#N)c2nnc(C(N)=O)c(N)n12`, the GI50 in the test with BT-549, in the test on HOP-62, in the test on CAKI-1, with RPMI-8226, with T47D and with TK-10 was > 100 µM (inactive) each time. Besides, the GI50 was > 100 µM (inactive) in the test on SK-MEL-28; > 100 µM (inactive) with OVCAR-4; > 100 µM (inactive) in the test with UACC-62; over 100 µM with HCT-15; > 100 µM (inactive) in the test on RXF 393; > 100 µM (inactive) in the test with SNB-19. Further, the GI50 with OVCAR-3, in the test on ACHN, in the test with MDA-MB-231, in the test with NCI-H522, in the test with KM12 and in the test with HL-60 was > 100 µM (inactive) throughout. Also, in the test with SK-MEL-5, the GI50 is > 100 µM (inactive).
As for `CCn1nc2c3c(ncn3C(C)(C)O2)c1=O`, the GI50 with BT-549, in the test on HOP-62, in the test with CAKI-1, in the test on RPMI-8226, in the test on T47D and with TK-10 was > 100 µM (inactive) in each case. Also, the GI50 in the test with SK-MEL-28 was > 100 µM (inactive); in the test on NCI-H226 it was > 100 µM (inactive); in the test with OVCAR-4, > 100 µM (inactive); in the test with UACC-62, > 100 µM (inactive); in the test with HCT-15, over 100 µM; in the test on RXF 393, > 100 µM (inactive). Moreover, the GI50 with SNB-19, in the test on ACHN, in the test on MDA-MB-231, in the test on NCI-H522, with KM12 and in the test on HL-60 was > 100 µM (inactive) each time. The GI50 with SK-MEL-5 is > 100 µM (inactive).
`C/C=C1/CC(C)C(C)(O)C(=O)OCC2C(O)CN3CCC(OC1=O)C23` (configuration not stated): the GI50 in the test on BT-549, with HOP-62, with CAKI-1, in the test on RPMI-8226, with T47D and in the test on TK-10 was > 100 µM (inactive) in each case. Also, the GI50 with NCI-H226 was > 100 µM (inactive); in the test with OVCAR-4 it was > 100 µM (inactive); in the test on UACC-62, > 100 µM (inactive); with HCT-15, over 100 µM; in the test on RXF 393 it was > 100 µM (inactive); in the test on SNB-19, > 100 µM (inactive). In addition, the GI50 was > 100 µM (inactive) in the test on ACHN; > 100 µM (inactive) in the test with MDA-MB-231; 68.9 µM (inactive) in the test on NCI-H522; > 100 µM (inactive) in the test on KM12; > 100 µM (inactive) in the test with HL-60; > 100 µM (inactive) in the test on SK-MEL-5.
For `Nc1nc(NCC2(CO)CCC2)cc(=O)[nH]1`, the GI50 with BT-549, with HOP-62, in the test with CAKI-1, in the test with RPMI-8226, with T47D and in the test on SK-MEL-28 was > 100 µM (inactive) throughout. The GI50 with NCI-H226 was > 100 µM (inactive); with OVCAR-4 it was > 100 µM (inactive); in the test on UACC-62, > 100 µM (inactive); in the test on HCT-15, over 100 µM; with RXF 393, > 100 µM (inactive); in the test on SNB-19, > 100 µM (inactive). Also, the GI50 with OVCAR-3, in the test on MDA-MB-231, with NCI-H522, in the test with KM12, with HL-60 and in the test on SK-MEL-5 was > 100 µM (inactive) in each case.
Take `C=Cc1nc(C#N)c(N)o1`: the GI50 with BT-549, with HOP-62, with CAKI-1, with RPMI-8226, in the test with T47D and in the test on TK-10 was > 100 µM (inactive) each time. The GI50 in the test with SK-MEL-28 was > 100 µM (inactive); in the test on NCI-H226, > 100 µM (inactive); in the test with OVCAR-4 it was > 100 µM (inactive); in the test on HCT-15, over 100 µM; with RXF 393, > 100 µM (inactive); in the test on SNB-19, > 100 µM (inactive). In addition, the GI50 in the test with OVCAR-3, in the test with MDA-MB-231, in the test on NCI-H522, in the test on KM12, in the test on HL-60 and with SK-MEL-5 was > 100 µM (inactive) throughout.
Take `CC(=O)NC1C(OCc2ccccc2)OC(CO)C(O)C1OCC(=O)N[C@@H](C)C(=O)N[C@H](CCC(=O)NCCNCCNc1c2ccccc2nc2cccc([N+](=O)[O-])c12)C(N)=O` (some centres not stated): the GI50 is > 10 µM (inactive) in the test on BT-549; 41.4 µM (inactive) with HOP-62; 22.6 µM (inactive) in the test with CAKI-1; 24.4 µM (inactive) in the test on RPMI-8226; 27.5 µM (inactive) in the test with T47D; 31.8 µM (inactive) in the test with TK-10. In addition, the GI50 with SK-MEL-28 was > 100 µM (inactive); in the test with OVCAR-4 it was 17.3 µM (inactive); in the test with UACC-62, 17.7 µM (inactive); with HCT-15, 22.6 µM; in the test with RXF 393, 36.4 µM (inactive); in the test with SNB-19 it was 38.9 µM (inactive). The GI50 in the test on OVCAR-3 was 44 µM (inactive); in the test with ACHN, 26.7 µM (inactive); with MDA-MB-231, 34.8 µM (inactive); in the test on NCI-H522, 4.92 µM (inactive); in the test on KM12, 24.2 µM (inactive); in the test on HL-60, 26.2 µM (inactive). Moreover, the GI50 in the test on SK-MEL-5 was 17.8 µM (inactive).
`CC1=NN(c2nc(N)nc(CS(C)(=O)=O)n2)C(C)(C)C1`: the GI50 in the test with BT-549, in the test on HOP-62, in the test on CAKI-1, with RPMI-8226, in the test on T47D and with TK-10 was > 100 µM (inactive) throughout. Moreover, the GI50 in the test on SK-MEL-28 is > 100 µM (inactive); in the test on OVCAR-4, > 100 µM (inactive); in the test with UACC-62, > 100 µM (inactive); in the test with HCT-15 it was over 100 µM; with RXF 393, > 100 µM (inactive); in the test on SNB-19, > 100 µM (inactive). Moreover, the GI50 in the test on ACHN, with MDA-MB-231, with KM12, in the test with HL-60 and in the test on SK-MEL-5 was > 100 µM (inactive) throughout.
Turning to `NC(=O)NCCCC(NC(=O)OCCCCCCn1ccc(=O)[nH]c1=O)C(=O)O` (configuration not stated), the GI50 in the test on BT-549 was > 100 µM (inactive); in the test with HOP-62, > 100 µM (inactive); with CAKI-1 it was > 100 µM (inactive); in the test on RPMI-8226, 34.5 µM (inactive); in the test with T47D, > 100 µM (inactive); in the test with TK-10, > 100 µM (inactive). Also, the GI50 in the test with SK-MEL-28 was > 100 µM (inactive); in the test on NCI-H226, > 100 µM (inactive); in the test with OVCAR-4, > 100 µM (inactive); in the test on UACC-62, > 100 µM (inactive); in the test with HCT-15 it was over 100 µM; in the test with RXF 393, > 100 µM (inactive). The GI50 with SNB-19, in the test with OVCAR-3, in the test with ACHN, with MDA-MB-231, with KM12 and in the test with HL-60 was > 100 µM (inactive) in each case.
As to `CCOC(=O)c1cc2cc3c4c(c2oc1=O)CCCN4CCC3`, the GI50 in the test with BT-549 is 31.4 µM (inactive); in the test with HOP-62 it was 26.2 µM (inactive); with CAKI-1, 47.3 µM (inactive); in the test with RPMI-8226, 19.3 µM (inactive); with T47D it was 15.2 µM (inactive); in the test with TK-10 it was 21.6 µM (inactive). Besides, the GI50 with SK-MEL-28 was 43.4 µM (inactive); in the test with NCI-H226, 14.7 µM (inactive); with OVCAR-4, 34 µM (inactive); with HCT-15, 25.2 µM; with RXF 393, 10.4 µM (inactive); with SNB-19, 42.6 µM (inactive). Besides, the GI50 with OVCAR-3 is 29.9 µM (inactive); in the test on ACHN, 34 µM (inactive); in the test with MDA-MB-231, 22.3 µM (inactive); in the test on NCI-H522, 19.4 µM (inactive); with KM12, 23.8 µM (inactive); with HL-60, 16.9 µM (inactive). In the test on SK-MEL-5, the GI50 was 13.4 µM (inactive).
Turning to `COc1cc2cc(C(=O)N3CC(COS(C)(=O)=O)c4ccc(NC(=O)OCc5ccccc5)cc43)[nH]c2c(OC)c1OC` (configuration not stated), the GI50 is > 100 µM (inactive) in the test with BT-549; 79.1 µM (inactive) in the test on HOP-62; > 100 µM (inactive) in the test on CAKI-1; > 100 µM (inactive) in the test on T47D; > 100 µM (inactive) with TK-10; > 100 µM (inactive) in the test with SK-MEL-28. For the same molecule, the GI50 in the test with NCI-H226 is > 100 µM (inactive); in the test on OVCAR-4, > 100 µM (inactive); in the test with UACC-62 it was > 100 µM (inactive); with HCT-15, over 100 µM; in the test on RXF 393, 25.2 µM (inactive); in the test with SNB-19, > 100 µM (inactive). In addition, the GI50 is > 100 µM (inactive) in the test on OVCAR-3; > 100 µM (inactive) in the test with ACHN; > 100 µM (inactive) in the test with MDA-MB-231; 99.1 µM (inactive) in the test on NCI-H522; > 100 µM (inactive) in the test with KM12; > 100 µM (inactive) with HL-60. Besides, the GI50 in the test with SK-MEL-5 is 26.5 µM (inactive).

By GI50 is commonly meant the concentration that inhibits growth by half.
